Test results published in PubChem BioAssay (NCI).
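Step 1: Grow cells in 96-well plates. Step 2: Expose to compound for 48 hours at 5 concentrations. Step 3: Interpolate endpoints linearly; if unreached, use highest concentration. TGI is the concentration that stops growth completely.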

Key:
Assay in all cases: NCI-60 cell line screen, 48 h
786-0 renal = system: 786-0 renal
A498 renal = system: A498 renal
ACHN renal = system: ACHN renal
BT-549 breast = system: BT-549 breast
COLO 205 colon = system: COLO 205 colon
KM12 colon = system: KM12 colon
M14 melanoma = system: M14 melanoma
MALME-3M melanoma = system: MALME-3M melanoma
NCI-H23 lung = system: NCI-H23 lung
SF-268 CNS = system: SF-268 CNS
SF-539 CNS = system: SF-539 CNS
SK-MEL-2 melanoma = system: SK-MEL-2 melanoma
SK-OV-3 ovarian = system: SK-OV-3 ovarian
SN12C renal = system: SN12C renal
T-47D breast = system: T-47D breast
UACC-257 melanoma = system: UACC-257 melanoma
PC-3 prostate = system: PC-3 prostate
SR leukemia = system: SR leukemia

Row | Compound | TGI (786-0 renal) [µM] | TGI (A498 renal) [µM] | TGI (ACHN renal) [µM] | TGI (BT-549 breast) [µM] | TGI (COLO 205 colon) [µM] | TGI (KM12 colon) [µM] | TGI (M14 melanoma) [µM] | TGI (MALME-3M melanoma) [µM] | TGI (NCI-H23 lung) [µM] | TGI (SF-268 CNS) [µM] | TGI (SF-539 CNS) [µM] | TGI (SK-MEL-2 melanoma) [µM] | TGI (SK-OV-3 ovarian) [µM] | TGI (SN12C renal) [µM] | TGI (T-47D breast) [µM] | TGI (UACC-257 melanoma) [µM] | TGI (PC-3 prostate) [µM] | TGI (SR leukemia) [µM]
1 | COc1cc(/C=C2\C(=O)N(c3ccccc3Cl)C(c3ccccc3)S2(=O)=O)cc(OC)c1OC (stereo unspecified) | > 100 | > 100 | > 100 | > 100 | > 100 | 83.5 | > 100 | 89.3 | > 100 | > 100 | 38.3 | > 100 | > 100 | 60.6 | > 100 | > 100 |  | 
2 | Cc1ccc(C)n1-c1ccccc1C1C=CN(C(=O)OC(C)(C)C)C=C1 | > 100 | > 100 | > 100 | > 100 | 32.4 | 31.2 | > 100 | 47.8 | > 100 | > 100 | > 100 | 35.6 | > 100 | > 100 |  | > 100 | > 100 | 
3 | O=C(c1ccccc1)N1OCCC1Nc1ccc(Br)cc1 (stereo unspecified) | > 10 |  | > 10 | > 10 | 4.33 |  | > 10 | > 10 | > 10 | > 10 | > 10 | > 10 | > 10 | > 10 | > 10 | > 10 | > 10 | 
4 | NC1CC(Cl)c2c(Cl)sc(Cl)c21 (stereo unspecified) | > 100 | > 100 | > 100 | > 100 | > 100 | > 100 | > 100 | > 100 | > 100 | > 100 | > 100 | > 100 | > 100 | > 100 | > 100 | > 100 |  | > 100
5 | CN(C)CC1CCCC(CN(C)C)C1=NOC(=O)c1ccccc1 (stereo unspecified) | > 100 | > 100 | > 100 |  | > 100 | > 100 | > 100 | > 100 | > 100 | > 100 | > 100 | > 100 | > 100 | > 100 |  | > 100 |  | > 100
6 | CC1OC(OC2C(OC(=O)[C@@H]3CC(C)(C)C[C@@H]4C5=CC[C@@H]6[C@@]7(C)C[C@H](O)[C@H](OC8OC(CO)C(O)C(O)C8O)[C@@](C)(CO)C7[C@H](O)C[C@@]6(C)[C@]5(C)C[C@@H](O)[C@H]43)OCC(O)C2O)C(O)C(O)C1O (stereo partly specified) | > 15 |  | > 15 | > 15 | > 15 | > 15 | > 15 |  | > 15 | > 15 | > 15 | > 15 | > 15 | > 15 | > 15 | > 15 | > 15 | 
7 | C[C@]12C[C@@H](c3ccccc3)Nc3ccccc3N1C(c1ccccc1)=NO2 | > 100 | > 100 | > 100 | 90.3 | 34.7 | > 100 | 93.3 | > 100 | > 100 | > 100 | > 100 | 76.3 | > 100 | > 100 |  | > 100 | > 100 | 34.6
